# Legend:
# [1] = system: tumor cells 22RV1, PC-3, HT-29, Hela, Hep G2, CaCo-2 and HCT116; experiment: MTT proliferation of various tumor cells at single concentration (FIG. 2); assay type: cell-based; conditions: 10 μM, 72 hours, 7 different tumor cells
# From the text: Cell survival rate=(OD570−OD630)/(OD570 negative control−OD630 negative control); wherein, OD570: OD570 value of each treatment group; OD630: OD630 value of each treatment group; OD570 control: OD570 value of the negative control group; OD630 control: OD630 value of the negative control group.
# transplanted tumors PC3 = experiment: Growth of transplanted tumors PC3 in nude mice (FIG. 8); assay type: in vivo; conditions: 5 mg/kg intraperitoneally every 2 days, four weeks
# From the text: […]
# [2] = system: colon cancer cells HCT116; experiment: Fatty acid content and composition by GC/MS, HCT116 (FIG. 5); assay type: cell-based; conditions: HCT116, 20 μM, 24 hours
# From the text: […]
# [3] = system: prostate cancer cells PC-3; experiment: Growth cycle of PC-3 cells, PI staining flow cytometry (FIG. 3); assay type: cell-based; conditions: 10 μM treatment group, 24 hours; control group 10.34%
# From the text: […]
# [4] = molecular target: T1, fatty acid synthase (FASN) in colon cancer cells HCT116 (Homo sapiens, UniProt P49327); experiment: FASN enzyme activity detection in treated HCT116 cells (NADPH absorbance at 340 nm); assay type: cell-based; conditions: HCT-116, 4 hours of incubation, read-out: FASN enzyme activity inhibition rate (%)
# T1 construct: endogenous in cells; host or cells: HCT116 colon cancer cells
# [5] = system: prostate cancer cells PC-3; experiment: Fatty acid content and composition by GC/MS, PC-3 (FIG. 5); assay type: cell-based; conditions: PC-3, 20 μM, 24 hours
# From the text: […]
# T1 sequence (P49327 whole entry): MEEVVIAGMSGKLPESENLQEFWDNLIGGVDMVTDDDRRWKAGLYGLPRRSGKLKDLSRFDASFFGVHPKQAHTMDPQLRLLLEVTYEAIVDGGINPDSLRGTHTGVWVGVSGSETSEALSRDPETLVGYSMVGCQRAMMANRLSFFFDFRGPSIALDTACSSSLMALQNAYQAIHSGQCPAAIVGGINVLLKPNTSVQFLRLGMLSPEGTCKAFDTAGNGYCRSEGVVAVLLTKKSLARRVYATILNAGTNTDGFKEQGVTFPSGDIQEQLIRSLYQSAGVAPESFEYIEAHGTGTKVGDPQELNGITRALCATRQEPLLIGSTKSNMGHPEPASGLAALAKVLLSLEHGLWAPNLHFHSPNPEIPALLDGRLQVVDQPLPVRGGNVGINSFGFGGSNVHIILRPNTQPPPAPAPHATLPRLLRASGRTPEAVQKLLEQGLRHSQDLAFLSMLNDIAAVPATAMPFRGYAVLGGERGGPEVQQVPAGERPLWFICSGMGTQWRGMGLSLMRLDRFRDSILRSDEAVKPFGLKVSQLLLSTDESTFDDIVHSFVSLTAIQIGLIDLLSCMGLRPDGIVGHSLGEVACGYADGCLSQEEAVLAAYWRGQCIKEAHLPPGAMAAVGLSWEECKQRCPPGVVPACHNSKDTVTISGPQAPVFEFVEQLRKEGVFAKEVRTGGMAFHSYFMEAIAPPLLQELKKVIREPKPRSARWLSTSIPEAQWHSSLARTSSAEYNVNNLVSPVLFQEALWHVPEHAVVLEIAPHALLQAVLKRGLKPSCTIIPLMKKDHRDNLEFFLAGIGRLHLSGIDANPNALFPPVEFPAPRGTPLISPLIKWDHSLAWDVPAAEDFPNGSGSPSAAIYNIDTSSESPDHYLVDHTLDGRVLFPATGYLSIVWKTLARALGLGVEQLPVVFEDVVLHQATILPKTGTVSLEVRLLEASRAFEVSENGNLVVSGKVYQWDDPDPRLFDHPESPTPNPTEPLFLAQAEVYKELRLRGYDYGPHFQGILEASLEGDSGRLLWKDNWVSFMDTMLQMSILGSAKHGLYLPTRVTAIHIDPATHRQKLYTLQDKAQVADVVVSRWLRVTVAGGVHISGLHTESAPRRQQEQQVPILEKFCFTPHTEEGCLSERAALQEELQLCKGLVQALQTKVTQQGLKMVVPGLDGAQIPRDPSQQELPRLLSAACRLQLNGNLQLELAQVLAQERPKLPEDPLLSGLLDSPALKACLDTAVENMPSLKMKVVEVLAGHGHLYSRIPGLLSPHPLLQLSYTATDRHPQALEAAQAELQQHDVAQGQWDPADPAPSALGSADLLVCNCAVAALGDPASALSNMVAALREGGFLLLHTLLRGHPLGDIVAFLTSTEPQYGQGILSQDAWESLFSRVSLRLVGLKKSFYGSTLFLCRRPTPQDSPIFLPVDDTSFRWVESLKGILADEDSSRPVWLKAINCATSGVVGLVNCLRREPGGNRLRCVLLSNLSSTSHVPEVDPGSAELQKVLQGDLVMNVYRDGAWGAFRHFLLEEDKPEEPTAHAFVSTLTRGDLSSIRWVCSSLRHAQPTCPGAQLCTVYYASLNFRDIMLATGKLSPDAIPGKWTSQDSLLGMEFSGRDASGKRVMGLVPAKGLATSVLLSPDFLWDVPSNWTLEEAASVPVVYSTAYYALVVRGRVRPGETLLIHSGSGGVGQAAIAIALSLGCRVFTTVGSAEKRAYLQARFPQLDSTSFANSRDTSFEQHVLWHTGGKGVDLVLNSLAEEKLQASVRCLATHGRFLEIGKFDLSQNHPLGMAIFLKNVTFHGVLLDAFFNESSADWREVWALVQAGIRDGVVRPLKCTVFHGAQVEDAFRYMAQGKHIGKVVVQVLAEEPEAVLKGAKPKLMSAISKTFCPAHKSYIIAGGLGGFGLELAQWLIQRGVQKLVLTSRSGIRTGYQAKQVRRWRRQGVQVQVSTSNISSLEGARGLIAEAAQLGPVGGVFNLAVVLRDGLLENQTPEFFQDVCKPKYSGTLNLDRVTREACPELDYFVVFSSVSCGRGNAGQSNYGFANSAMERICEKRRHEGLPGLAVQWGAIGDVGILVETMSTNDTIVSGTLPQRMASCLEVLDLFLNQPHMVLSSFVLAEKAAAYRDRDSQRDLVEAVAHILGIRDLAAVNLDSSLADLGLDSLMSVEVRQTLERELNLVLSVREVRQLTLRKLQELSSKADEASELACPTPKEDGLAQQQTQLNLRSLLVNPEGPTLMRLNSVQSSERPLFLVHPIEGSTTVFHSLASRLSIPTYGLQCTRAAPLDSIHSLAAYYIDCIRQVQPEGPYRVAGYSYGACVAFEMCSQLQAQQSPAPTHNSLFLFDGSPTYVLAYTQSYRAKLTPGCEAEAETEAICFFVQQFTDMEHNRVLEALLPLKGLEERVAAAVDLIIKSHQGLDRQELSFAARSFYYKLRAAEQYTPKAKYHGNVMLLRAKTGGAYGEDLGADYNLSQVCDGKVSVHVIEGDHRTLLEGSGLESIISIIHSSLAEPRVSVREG
structure (smiles),measurement,setting,value
O=C(CCCC(=O)Nc1ccc(Br)cc1)N/N=C/c1cc(Br)ccc1O [Compound I-1],effect on proliferation of tumor cells,[1],significantly improved inhibitory effect on tumor proliferation
same,HE staining of transplanted tumor tissue,transplanted tumors PC3; FIG. 8B,dark dotted area is significantly reduced
same,tumor mass of mice,transplanted tumors PC3; PC3 transplanted tumors,significantly lower than that of the control group
same,fatty acid content of 16:0,[2],lower than that of the control group
same,total fatty acid content,[2],significantly lower than that of the control group
same,proportion of PC3 cells in S phase,[3],19.10%
same,inhibition at 20 µM,[4],58.6%
same,fatty acid content of 16:0,[5],lower than that of the control group
same,total fatty acid content,[5],significantly lower than that of the control group

# Reference: patent US11911353B2, “Fatty acid synthase inhibitor and application thereof” (Jiangnan University, priority 2019, dated 2024)
